Measured values taken from US9119401B2, “Plant glutamine synthetase inhibitors and methods for their identification” (priority 2012, dated 2015).
Like-named read-outs stand apart in the source and are kept apart here.

What was measured:
Burkholderia A396 = type: cell-based, Burkholderia sp. A396; details: for Susceptible: Muller-Hinton medium, 72-hour incubation at 25° C.; for Susceptibility of Burkholderia A396 (in words): Table 2
Method: Antibiotic susceptibility of Burkholderia A396 is tested using antibiotic disks on Muller-Hinton medium as described in PML Microbiological's technical data sheet #535.

[1] = system: recombinant glutamine synthetase from Lotus japonicas; test: Biosynthetic assay for plant glutamine synthetase; type: biochemical; details: for effect on plant glutamate synthetase activity (in words): text summary of Table 5, 40 μg/ml
Method: The biosynthetic assay for plant glutamine synthetase was carried out as follows. This assay uses following solutions: reaction buffer (pH 6.8, 75 mM HEPES, 300 mM L-glutamic acid, 11 mM NH4Cl, 40 mM MgCl2), recombinant […] GS from Lotus japonicas (Betti et al., 2006) working solution (pH 6.8, 50 mM ATP), reaction quenching and color formation solution (12% w/v L-ascorbic acid in 1 N HCl solution and 2% w/v sodium molybdate in DD H2O), color fixing solution (1% sodium citrate tribasic dehydrate in 1% acetic acid in DD H2O), and blank solution (420 mM EDTA solution).
Commercial herbicide (i.e., glufosinate or DL-Phosphinotricin) was used a positive control. EDTA was used as a negative control. In this experiment, we used the active ingredient(s) in the extracts from Burkholderia Spp. (internal labeled as A396 strain or MBI-206 and/or MBI-010).

B. cepacia isolates = details: 366 B. cepacia isolates, Pitt et al., 1996; cited from earlier work
[2] = system: B. cepacia complex strains isolated from cystic fibrosis patients; details: of 2,621 B. cepacia complex strains, Zhou et al., 2007; cited from earlier work
[3] = Table 5, pure compounds of MBI-206 and fractions, 40 μg/ml

For `C[C@@H](O)[C@H]1C(=O)N2C(C(=O)O)=C(SCCN=CN)C[C@H]12` [Imipenem], the Susceptible (Burkholderia A396; disk 10 ug) was “+++”.
For `[H]/N=C(/N)N[C@H]1[C@H](O)[C@@H](O)[C@H](O[C@@H]2O[C@@H](C)[C@](O)(C=O)[C@H]2O[C@@H]2O[C@@H](CO)[C@H](O)[C@@H](O)[C@@H]2NC)[C@@H](N/C(N)=N\[H])[C@@H]1O` [Streptomycin], the Susceptible (Burkholderia A396; disk 10 ug) was “−”.
For `CC1(C)S[C@@H]2[C@H](NC(=O)[C@H](N)c3ccccc3)C(=O)N2[C@H]1C(=O)O` [Ampicillin], the Susceptible (Burkholderia A396; disk 10 ug) was “−”.
In the case of `CP(=O)(O)CCC(N)C(=O)O` (racemic) [DL-Phosphinotricin], the “GS inhibition (%) Plate 1” value ([1]; Study #2 (MBI-206), 100 μg/ml) is reported as 68.8%, the “GS inhibition (%) Plate 2” value ([1]; Study #2 (MBI-206), 100 μg/ml) is reported as 71.5% and the “GS inhibition (%)” value ([1]; Table 5, pure compounds of MBI-206 and fractions, 100 μg/ml) is reported as 70.8%. For the same compound, the “GS inhibition (%)” value ([1]; study #1 (MBI-010), 200 μg/ml final concentration) was 70% and the “GS inhibition (%)” value ([1]; study #1 (MBI-010), 200 μg/ml final concentration, listed as DL-phosphinotricin) was “about 70%”.
For `NC[C@H]1O[C@H](O[C@H]2[C@H](O)[C@@H](O[C@H]3O[C@H](CO)[C@@H](O)[C@H](N)[C@H]3O)[C@H](N)C[C@@H]2N)[C@H](O)[C@@H](O)[C@@H]1O` [Kanamycin], the Susceptible (Burkholderia A396; disk 30 ug) was “+++”.
With Penicillin the Susceptible (Burkholderia A396; disk 10 ug) was “−”.
With Gentamicin the Susceptible (Burkholderia A396; disk 10 ug) was “−”.
In the case of `COC(=O)c1nc(CC(C)C)oc1-c1c[nH]c2ccccc12` [Templazole A (i), templazole A], the “GS inhibition (%)” value [1, 3] is reported as 30% and the “effect on plant glutamate synthetase activity (in words)” value (shortened to “effect”) [1] is reported as “inhibitory effect”.
In the case of `CC[C@H]1OC(=O)[C@H](C)[C@@H](O[C@H]2C[C@@](C)(OC)[C@@H](O)[C@H](C)O2)[C@H](C)[C@@H](O[C@@H]2O[C@H](C)C[C@H](N(C)C)[C@H]2O)[C@](C)(O)C[C@@H](C)C(=O)[C@H](C)[C@@H](O)[C@]1(C)O` [Erythromycin], the Susceptible (Burkholderia A396; disk 15 ug) is reported as “−”.
For templazole B [Templazole B (ii)], the “GS inhibition (%)” value [1, 3] was 46% and the “effect” value [1] was “inhibitory effect”.
In the case of `CO/N=C(\C(=O)N[C@@H]1C(=O)N2C(C(=O)O)=C(COC(N)=O)CS[C@H]12)c1ccco1` [Cefuroxime], the Susceptible (Burkholderia A396; disk 30 ug) is listed as “−” and the “antibiotic resistance of isolates (in words)” value (B. cepacia isolates) is listed as “most of them are resistant”.
With `CCN1CCN(C(=O)N[C@@H](C(=O)N[C@@H]2C(=O)N3[C@@H]2SC(C)(C)[C@@H]3C(=O)O)c2ccccc2)C(=O)C1=O` [Piperacillin] the “Susceptibility of Burkholderia A396 (in words)” value (“Susceptibility” below) (Burkholderia A396) was “susceptible” and the Susceptible (Burkholderia A396; disk 100 ug) was “+++”.
For `O=C(O)c1cn(C2CC2)c2cc(N3CCNCC3)c(F)cc2c1=O` [Ciprofloxacin], the strains susceptible [2] is listed as 5%, the “Susceptibility” value (Burkholderia A396) is listed as “susceptible” and the Susceptible (Burkholderia A396; disk 5 ug) is listed as “++”. The “antibiotic resistance of isolates (in words)” value (B. cepacia isolates) was “most of them are resistant”.
With `C/C=C1\NC(=O)[C@H]2CSSCC/C=C/[C@H](CC(=O)N[C@H](C(C)C)C(=O)N2)OC(=O)[C@H](C(C)C)NC1=O` [FR901228 (iii), FR901228] the “GS inhibition (%)” value [1, 3] was 57% and the “effect” value [1] was “inhibitory effect”.
With `CN(C)[C@@H]1C(O)=C(C(N)=O)C(=O)[C@@]2(O)C(O)=C3C(=O)c4c(O)cccc4[C@@](C)(O)[C@H]3C[C@@H]12` [Tetracycline] the Susceptible (Burkholderia A396; disk 30 ug) was “−”.
In the case of `CN(C)[C@@H]1C(O)=C(C(N)=O)C(=O)[C@@]2(O)C(O)=C3C(=O)c4c(O)cccc4[C@@](C)(O)[C@H]3[C@H](O)[C@@H]12` [Oxytetracycline], the Susceptible (Burkholderia A396; disk 30 ug) is reported as “−”.
For `O=C(N[C@H](CO)[C@H](O)c1ccc([N+](=O)[O-])cc1)C(Cl)Cl` [Chloramphenicol], the strains resistant [2] is listed as 85%, the strains susceptible [2] is listed as 15% and the “Susceptibility” value (Burkholderia A396) is listed as “susceptible”. The Susceptible (Burkholderia A396; disk 30 ug) was “++”.
